IC50 and Kd data for one compound are collected here from patent US7446106B2, “Pyridylfurans and pyrroles as Raf kinase inhibitors” (SmithKline Beecham plc, priority 2001, dated 2008).

Test [1] relates to Colo201 (human colon carcinoma). As to the kind of experiment: XTT 72 hr growth inhibition (Assay 3), Colo201. The test is classed as cell-based. The note with it: COLO 201, colorectal cancer, B-Raf status ND, Ras ND, read-out: IC50 cell viability, Colo201. On the procedure:
XTT 72 Hr Growth Inhibition Protocol for Mammalian Cultured Cells (Assay 3)
Human diploid foreskin fibroblasts (HFF) or human colon carcinoma (Colo 201) cells were grown in Dulbecco's modified Eagle's medium (DMEM) (kvitrogen/Life Technologies) containing 10% fetal bovine serum (FBS) and the antibiotics penicillin (100 Units/ml) and streotomycin (100 microgramnis/ml) (Invitrogen/Life Technologies). Growth was at 37° C. in humidified 5% CO2 incubators in 75 cm^2 plastic flasks. Cells were harvested using 0.25% trypsin/1 mM ethylenediaminetetraacetic acid (EDTA), resuspended in growth medium, and counted using a hemocytometer. Flat-bottomed 96-well plates were seeded with 2×10^3 cells/well in a volume of 200 ul from trypsinized exponentially growing cultures. To “blank” wells, growth medium was added with no additions. Cells were incubated overnight to permit attachment.
Next day, medium from wells that contained cells was replaced with 180 microliters of fresh medium. Appropriate dilutions of test compounds were added to the wells from stock soloutions of compound dissolved in dimethyl sulfoxide (DMSO); final DMSO concentration in all wells was 0.2%. […] Absorbance at 450 nm was then determined using a 96-well UV plate reader (Molecular Devices). Under these conditions, absorbance of untreated control cells at […] was at least 1.0 optical density unit/ml. […]

Test [2] concerns HFF (normal human foreskin fibroblasts). Kind of test: Methylene blue growth inhibition assay (Assay 2), HFF. Type of test: cell-based. The conditions noted are these: Fibroblast, 72 h, B-Raf wt, Ras wt, 3 days, read-out: IC50 cell growth, HFF.
The test system of a further test is SKMEL3 (human melanoma). As to the kind of experiment: Methylene blue growth inhibition assay (Assay 2), SKMEL3. The test is classed as cell-based. The conditions noted are these: SK-MEL3, 72 h, B-Raf V599E, Ras wt, 3 days, read-out: IC50 cell growth, SKMEL3.
For test [3], the system named is Colo205 (colon carcinoma). As to the kind of experiment: Methylene blue growth inhibition assay (Assay 2), Colo205. Type of test: cell-based. The conditions noted are these: Homo sapiens, COLO 205, 72 h, colorectal cancer, B-Raf V599E, Ras wt, 3 days, read-out: IC50 cell growth, Colo205.
The target in a further test is B-Raf (Homo sapiens, UniProt P15056). As to the kind of experiment: Fluorescence anisotropy kinase binding assay (Assay 1). The text has this: The activity of compounds of formula (I) as B-Raf inhibitors may be determined by the following in vitro assay:
Fluorescence Anisoptrophy Kinase Binding Assay
The concentration of kinase enzyme should preferably be >1×Kf. The concentration of fluorescent ligand required will depend on the instrumentation used, and the fluorescent and physicochemical properties. The concentration used must be lower than the concentration of kinase enzyme, and preferably less than half the kinase enzyme concentration. A typical protocol is:
All compounds are serially diluted in DMSO, then by a one step dilution into buffer of comparison, 50 mM HEPES, […] pH7.5, 1 mM CHAPS, 10 mM MgCL2, for the assay.
B-Raf Enzyme concentration: 1 nM
Fluorescent ligand concentration: 0.5 nM
Test compound concentration: 0.5 nM-100 uM
Components incubated in 10 ul final volume in LJL HE 384 type B black microtitre plate until equilibrium reached (Over 3 h, up to 30 h)
Fluorescence anisotropy read in an LJL Acquest fluorescence reader.
Definitions: Ki=dissociation constant for inhibitor binding
• Kf=dissociation constant for fluorescent ligand binding
The fluorescent ligand is the following compound:
which is derived from 5-[2(4aminomethylphenyl)-5-pyridin-4-yl-1H-imidazolyl-4-yl]-2-chlorophenol and rhodamine green.
(Polarisation of emitted light reports the rotation of a fluorescent probe.)

The next test has as its system SKMEL2 (human melanoma). As to the kind of experiment: Methylene blue growth inhibition assay (Assay 2), SKMEL2. The test is classed as cell-based. The note with it: SK-MEL-2, 72 h, B-Raf wt, [Q61R]N-Ras, 3 days, read-out: IC50 cell growth, SKMEL2.
Another test concerns A375P (human melanoma). As to the kind of experiment: Methylene blue growth inhibition assay (Assay 2), A375P. The test is classed as cell-based. The note with it: 72 h, B-Raf V599E, Ras wt, 3 days, read-out: IC50 cell growth, A375P.

Structures are written as SMILES. pIC50: −log10 of the molar value. Where only a bound is given, the exact number is not on record here.

Chain of B-Raf (P15056 whole entry): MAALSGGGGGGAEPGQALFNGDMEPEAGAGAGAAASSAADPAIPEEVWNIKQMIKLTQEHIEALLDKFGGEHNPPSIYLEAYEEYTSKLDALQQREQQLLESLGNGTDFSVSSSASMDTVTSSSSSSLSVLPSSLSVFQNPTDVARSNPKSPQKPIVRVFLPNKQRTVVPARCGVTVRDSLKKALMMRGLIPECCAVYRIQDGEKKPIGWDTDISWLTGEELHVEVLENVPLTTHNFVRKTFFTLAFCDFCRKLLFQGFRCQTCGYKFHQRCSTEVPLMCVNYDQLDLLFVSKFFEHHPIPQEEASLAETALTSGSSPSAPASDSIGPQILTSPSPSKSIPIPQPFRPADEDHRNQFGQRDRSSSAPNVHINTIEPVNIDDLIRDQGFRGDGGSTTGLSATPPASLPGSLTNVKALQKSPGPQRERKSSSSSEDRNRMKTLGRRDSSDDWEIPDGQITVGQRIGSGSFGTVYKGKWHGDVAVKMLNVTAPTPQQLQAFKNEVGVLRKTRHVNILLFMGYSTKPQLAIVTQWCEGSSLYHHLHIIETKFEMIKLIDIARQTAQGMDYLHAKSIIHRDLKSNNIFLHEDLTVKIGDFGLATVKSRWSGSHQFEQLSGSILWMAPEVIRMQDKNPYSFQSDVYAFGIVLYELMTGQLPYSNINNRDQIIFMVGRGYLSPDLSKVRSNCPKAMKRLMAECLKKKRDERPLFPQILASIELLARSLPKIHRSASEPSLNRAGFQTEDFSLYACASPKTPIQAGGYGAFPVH

Broadly, the pIC50 is −log10 of the IC50, conventionally taken in molar units. A word on the Kd: it is a measure of binding affinity in units of concentration. Read a high Kd as lower affinity. For `CN(C)CCOc1ccc(-c2cc(-c3ccc(Cl)c(O)c3)c(-c3ccncc3)o2)cc1` [Example 3, 2-Chloro-5-{5-[4-(2-dimethylamino-ethoxy)-phenyl]-2-pyridin-4-yl-furan-3-yl}-phenol], the pIC50 was 5.35 in test [1]; less than 4.52 in test [2]; 6.05 in the test on SKMEL3 (human melanoma); 5.03 in test [3]; less than 5.85 with SKMEL2 (human melanoma); 5.64 in the test with A375P (human melanoma). For the same compound, the Kd on B-Raf came out at 3 nM.
